Test results reported in patent US20110289632A1, “METHYLKETONE SYNTHASE, PRODUCTION OF METHYLKETONES IN PLANTS AND BACTERIA” (The Regents of the University of Michigan, priority 2009, published 2011).

Experiments:
[1] = system: E. coli BL21 cells; test: Headspace SPME GC-MS of E. coli cultures expressing ShMKS2 or SlMKS2; assay type: cell-based, Escherichia coli; conditions: IPTG induction, overnight growth
Procedure: To investigate the biochemical activity of MKS2, the full ORFs of the wild-species allele (ShMKS2) and the cultivated allele (SlMKS2) were amplified and ligated into an E. coli expression vector (see Examples, Materials and Methods). These vectors were introduced into E. coli BL21cells and ShMKS2 or SlMKS2 expression was induced by the addition of IPTG (see Examples, Materials and Methods). After induction and overnight growth, the culture was analyzed by solid-phase microextraction (SPME) of its headspace followed by gas chromatography-mass spectrometry (GC-MS; see Examples, Materials and Methods). The major compound in the headspace of the E. coli cells expressing ShMKS2 was identified as 2TD (FIG. 8A). Lower amounts of 2UD and 2-pentadecanone were also detected, as well as the reduced alcohol forms of 2UD and 2TD (i.e., 2-undecanol and 2-tridecanol). […] The headspace also contained 2-nonanol and 2-undecanol (FIG. 8B). However, the major headspace compound produced by SlMKS2-expressing cells eluted slightly later than 2TD (peak labeled “1” in FIG. 8B, and also present at lower levels in the chromatograph in FIG. 8A).
The sequence of these cDNAs was verified and transferred into the E. coli expression vector pHis9GW following Auldridge et al. (submitted). The pHis9GW vectors carrying ShMKS2 or SlMKS2 were mobilized into E. coli […] cells, and gene expression was induced by the addition of 2 mM IPTG after the culture OD595 value had reached 0.6-0.7. After IPTG addition, ShMKS2- and SlMKS2-expressing bacterial cells were grown at 30° C. or 18° C. overnight.
After induction with IPTG and growth overnight, 1 mL of culture was placed in a glass vial at 42° C. The vial was capped with a screw cap in which a small hole had been bored. The needle of a SPME device was inserted into the vial through the hole in the cap and the fiber extended for 30 min. for volatile collection, after which the fiber was withdrawn and then injected into the GC. […]

[2] = system: 3-ketomyristoyl-ACP; test: In vitro thioesterase activity assay; assay type: biochemical; conditions: 2.5 μg protein, 30 min at 23° C., then acid and heat
Procedure: To examine the potential thioesterase activity of ShMKS1 and ShMKS2 in vitro, we added 2.5 μg of each protein to a 500 μL solution of freshly prepared 3-ketomyristoyl-ACP. This protein-linked substrate was prepared using a sequential in vitro enzymatic system involving the addition of multiple starting materials and enzymes and the reaction allowed to proceed for 5 hr (see Examples, Materials, and Methods). Due to the highly unstable nature of 3-ketomyristoyl-ACP, this compound was not further purified but instead the solution in which it was synthesized was used as the “substrate solution” for qualitative in vitro thioesterase activity assays.
Aliquots of this substrate solution were incubated with buffer, ShMKS1, ShMKS2, or both ShMKS1 and ShMKS2 for 30 min at 23° C. […]
3-Ketomyristoyl-ACP was synthesized in a 500 μL reaction volume containing 1,3-bis(tris(hydroxymethyl)methylamino) propane (20 mM, pH 7.0), malonyl-CoA (0.2 mM), lauroyl-CoA (0.2 mM), ShACP (0.1 mM), EcFabD (10 μg) and MtFabH (10 μg). […] Hexane extracts were analyzed by GC-MS as described above. The values for heat-treated samples shown in FIG. 20 were corrected for loss of methylketones during the heating step, as determined by comparisons with standards.

[3] = In vitro decarboxylase activity assay; assay type: biochemical; conditions: substrate 3-ketomyristic acid
Procedure: To examine the possible decarboxylase activity of ShMKS1 as well as ShMKS2 in vitro, we tested homogenous recombinant ShMKS1 and partially purified recombinant ShMKS2 proteins (without their transit peptides) for their ability to convert 3-ketomyristic acid into its 2-tridecanone decarboxylated product. […] In steady-state kinetic assays, ShMKS1 was determined to have a KM of 18.4±5.6 μM for 3-ketomyristic acid, with an apparent kcat of 227.9±24.1 min^−1.
A typical decarboxylase assay consisted of a 500 μL reaction solution containing ShMKS1 or ShMKS2 (2.5 μg), 3-ketomyristic acid (0.1 mM), and 1,3-bis(tris(hydroxymethyl)methylamino) propane—Na^+ (20 mM, pH 7.0). For measuring kinetic parameters, substrate concentrations ranged from 5 μM to 75 μM. Assays were performed at 23° C. for 10 min after addition of protein. […] Reaction products (5 μL) were analyzed by a modified procedure, as described in O'Maille et al (2004) A single-vial analytical and quantitative gas chromatography-mass spectrometry assay for terpene synthases. […] Product quantification was performed using total ion monitoring (TIM) mode where all ions in the mass spectrum contribute to the measured response. […] 2-Tridecanone was quantified by integration of peak areas using Enhanced Chemstation (version B.01.00, Agilent Technologies). […]

[4] = system: E. coli cells; test: GC-MS of methylketones in spent media of E. coli cells expressing ShMKS1, ShMKS2 or ShMKS2 (D79A); assay type: cell-based, Escherichia coli
Procedure: To test if expression of either ShMKS1 or ShMKS2 (without its transit peptide) in E. coli results in the formation of 3-ketoacids, we collected spent media of bacterial cells expressing each of them (by centrifuging out the cells at the end of the incubation period), heated the spent media at 75° C. for 30 min in the presence of 1 M sulfuric acid, extracted with hexane, then injected the hexane fraction in a GC-MS. […] On the other hand, the spent medium of E. coli cells expressing ShMKS2 contained 5.6±0.32 μg/μL of total methylketones, and the amount of methylketones increased […], to 40.7±2.1 μg/μL, after the spent medium was treated with acid and heat (FIG. 17).
The coding regions of ShMKS1 and ShMKS2 (minus the transit peptide-encoding region) were each amplified by PCR and inserted into the E. coli expression vector pEXP-TOPO-CT (Invitrogen). The expression vectors were introduced into E. coli BL21 Star (DE3) cells, and gene expression was induced by the addition of 0.5 mM IPTG after the culture optical density at 600 nm had reached 0.65. After induction with IPTG and growth at 18° C. overnight, the cells expressing ShMKS1 or ShMKS2 were centrifuged at 5000 rpm for 15 minutes, and 1-mL aliquots of the spent medium were placed in individual vials for further analysis.
Aliquots (1 mL) of the spent medium of E. coli expressing ShMKS2, obtained by centrifuging the culture solution after the incubation time at 5,000 rpm for 15 min and collecting the solution without the cells, were treated in the following ways: 1. Incubated with 40 μl (3 μg) of purified MKS1 in phosphate buffer (12.5 mM NaH2PO4, 125 mM NaCl, 2 mM DTT, pH 6.8) for 2 hrs at 30° C. 3. Incubated at 75° C. for 30 min followed by 30 min at 30° C. 4. Incubated with 1 mL of 2M H2SO4 at 75° C. for 30 min followed by 30 min at 30° C. After the various treatments, 1 mL of hexane containing 5 ng/μL linalool as an internal standard was added and the resulting mixture was vortexed and centrifuged at 5000 rpm for 10 min. Two μL of the resulting extract were injected into the GC-MS for determination of methylketones. GC-MS and product analysis were performed as described by Ben-Israel et al, (2009) Multiple biochemical and morphological factors underlie the production of methylketones in tomato trichomes, Plant Physiology 151: 1952-1964.

[5] = combined heat and acid treatment
[6] = heated at 75° C. for 30 min, no sulfuric acid

Question: Which results are given for “ShMKS2: methylketone synthase 2 from Solanum habrochaites glabratum (SEQ ID NO: 4 / 25); thioesterase hydrolyzing 3-ketoacyl-ACPs”?
Answer: major compound in the headspace of E. coli cells expressing the enzyme [1]: 2TD; amount of 2-tridecanone formed vs buffer-incubated substrate solution treated with acid and heat [2]: approximately 3 fold; decarboxylase activity [3]: no decarboxylase activity; increase of amount of methylketones after acid and heat treatment ([4]; acid and heat treated vs untreated spent medium): 8 fold; total methylketones in spent medium ([4]; after spent medium was treated with acid and heat (1 M sulfuric acid, 75° C., 30 min)): 40.7 ± 2.1 µg/µL; 2-nonanone in spent medium [4, 5]: 0.95 ± 0.04 µg/µL; 2-nonanone, fold over non-treated control [4, 5]: 19.1 fold; 2-pentadecenone in spent medium [4, 5]: 5.69 ± 0.21 µg/µL; 2-pentadecenone, fold over non-treated control [4, 5]: 4.4 fold; 2-tridecanone in spent medium [4, 5]: 11.99 ± 0.51 µg/µL; 2-tridecanone, fold over non-treated control [4, 5]: 4.6 fold; 2-tridecenone in spent medium [4, 5]: 13.04 ± 0.63 µg/µL; 2-tridecenone, fold over non-treated control [4, 5]: 11.8 fold; 2-undecanone in spent medium [4, 5]: 9.33 ± 0.61 µg/µL; 2-undecanone, fold over non-treated control [4, 5]: 18.3 fold; 2-nonanone, fold over non-treated control ([4]; heat only): 11.9 fold; 2-pentadecenone, fold over non-treated control ([4]; heat only): 3.0 fold; 2-tridecanone, fold over non-treated control ([4]; heat only): 3.7 fold; 2-tridecenone, fold over non-treated control ([4]; heat only): 9 fold; 2-undecanone, fold over non-treated control ([4]; heat only): 12.2 fold; 2-nonanone in spent medium [4, 6]: 0.60 ± 0.05 µg/µL; 2-pentadecenone in spent medium [4, 6]: 3.94 ± 0.54 µg/µL; 2-tridecanone in spent medium [4, 6]: 9.61 ± 0.27 µg/µL; 2-tridecenone in spent medium [4, 6]: 9.94 ± 0.83 µg/µL; 2-undecanone in spent medium [4, 6]: 6.22 ± 0.34 µg/µL; 2-nonanone in spent medium ([4]; untreated spent medium): 0.05 µg/µL; 2-pentadecenone in spent medium ([4]; untreated spent medium): 1.3 µg/µL; 2-tridecanone in spent medium ([4]; untreated spent medium): 2.6 µg/µL; 2-tridecenone in spent medium ([4]; untreated spent medium): 1.1 µg/µL; 2-undecanone in spent medium ([4]; untreated spent medium): 0.51 µg/µL; total methylketones in spent medium ([4]; untreated spent medium): 5.6 ± 0.32 µg/µL

Question: With “SlMKS2: methylketone synthase 2, cultivated tomato S. lycopersicum allele (SEQ ID NO: 3)” as the substance, how does the “major compound in the headspace of E. coli cells expressing the enzyme” value [1] read?
Answer: 2-tridecenone

Question: What about the “two main MK in the headspace” value [1] of the same substance?
Answer: 2UD as well as 2-nonanone
